We go through six compounds from ChEMBL document CHEMBL1135342, “Synthesis and evaluation of thymidine-5'-O-monophosphate analogues as inhibitors of Mycobacterium tuberculosis thymidylate kinase” (Bioorg Med Chem Lett, 2002).

The test has as its target T1, Thymidylate kinase (Mycobacterium tuberculosis, UniProt P9WKE1).
T1 sequence (P9WKE1 whole entry): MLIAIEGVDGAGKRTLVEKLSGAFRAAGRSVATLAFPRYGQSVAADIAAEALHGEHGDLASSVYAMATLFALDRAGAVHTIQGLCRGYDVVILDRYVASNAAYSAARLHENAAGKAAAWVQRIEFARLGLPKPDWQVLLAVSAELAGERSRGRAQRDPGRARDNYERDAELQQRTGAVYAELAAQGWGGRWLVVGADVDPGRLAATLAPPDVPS
Kind of test: Compound was tested for binding affinity against Mycobacterium tuberculosis thymidine monophosphate kinase.
A word on the Ki: it is the dissociation constant of the complex between target and ligand, obtained from inhibition or displacement. Regarding `Cc1cn([C@H]2C[C@H](N)[C@@H](COP(=O)(O)O)O2)c(=O)[nH]c1=O`, the affinity, expressed as Ki, was 235 µM.

As to `Cc1cn([C@@H]2O[C@H](COP(=O)(O)O)[C@@H](N)[C@H]2O)c(=O)[nH]c1=O`, the affinity corresponds to a Ki of 27 µM.

`Cc1cn([C@@H]2O[C@H](COP(=O)(O)O)[C@@H](O)[C@H]2F)c(=O)[nH]c1=O` registered a Ki of 43 µM. With `Cc1cn([C@@H]2O[C@H](COP(=O)(O)O)[C@@H](O)[C@H]2Cl)c(=O)[nH]c1=O` the figure was 19 µM; with `Cc1cn([C@@H]2O[C@H](COP(=O)(O)O)[C@@H](O)[C@H]2N)c(=O)[nH]c1=O`, 55 µM. As for `Cc1cn([C@H]2C[C@H](N=[N+]=[N-])[C@@H](COP(=O)(O)O)O2)c(=O)[nH]c1=O` [AZIDOTHYMIDINE MONOPHOSPHATE], affinity was put at a Ki of 10 µM.
